Measurements: patent US7666873B2, “N-phenyl-(2R,5S)dimethylpiperazine derivative” (Astellas Pharma Inc., priority 2002, dated 2010)
Counter-ions that a name gives are not always drawn. Like-named read-outs stand apart in the source and are kept apart here.

Columns and labels:
[1] = biological target: T1, human androgen receptor (Homo sapiens, UniProt P10275); assay: Transcription activation inhibitory action toward human androgen receptor (antagonistic action), MMTV luciferase reporter in CHO cells; type: cell-based
T1 construct: expressed in transfected cells
T1 sequence (P10275 1-920): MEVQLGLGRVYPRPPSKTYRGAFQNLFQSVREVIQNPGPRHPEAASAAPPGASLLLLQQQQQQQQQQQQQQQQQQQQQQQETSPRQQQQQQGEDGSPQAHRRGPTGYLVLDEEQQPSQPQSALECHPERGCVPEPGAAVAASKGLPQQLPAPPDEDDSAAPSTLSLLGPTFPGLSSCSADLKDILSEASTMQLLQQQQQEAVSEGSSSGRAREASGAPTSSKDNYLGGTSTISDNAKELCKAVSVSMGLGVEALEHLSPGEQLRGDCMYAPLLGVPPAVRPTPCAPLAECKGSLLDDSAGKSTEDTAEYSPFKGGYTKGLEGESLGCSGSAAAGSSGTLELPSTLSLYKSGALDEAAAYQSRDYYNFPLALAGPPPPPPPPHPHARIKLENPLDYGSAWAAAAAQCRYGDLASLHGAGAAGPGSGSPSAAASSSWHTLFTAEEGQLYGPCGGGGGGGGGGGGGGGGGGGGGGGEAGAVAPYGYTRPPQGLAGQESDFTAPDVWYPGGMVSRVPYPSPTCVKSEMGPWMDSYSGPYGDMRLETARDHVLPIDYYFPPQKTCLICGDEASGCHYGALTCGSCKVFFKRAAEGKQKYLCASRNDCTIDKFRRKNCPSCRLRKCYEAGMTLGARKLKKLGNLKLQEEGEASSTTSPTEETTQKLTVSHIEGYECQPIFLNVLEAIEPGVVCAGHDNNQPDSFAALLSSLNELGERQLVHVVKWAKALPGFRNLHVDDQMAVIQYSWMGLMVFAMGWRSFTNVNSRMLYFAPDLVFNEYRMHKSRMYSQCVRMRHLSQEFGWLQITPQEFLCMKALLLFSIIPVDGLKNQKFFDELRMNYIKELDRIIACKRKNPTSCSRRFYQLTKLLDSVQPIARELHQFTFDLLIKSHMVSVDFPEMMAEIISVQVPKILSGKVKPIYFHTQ
Procedure: b) Evaluation of Transcription Activation Inhibitory Action Toward Human Androgen Receptor (Antagonistic Action)
CHO/MMTV stable transformant cells and CHO/SV40 stable transformant cells were each inoculated to a 96-well luminoplate for cell culture in an amount of 2×10^4 cells. After 6 to 8 hours, each of the compounds of the present invention was added together with DHT (final concentration of 0.3 nM). After about 18 hours from the addition of the compound, 20 μl of a solution containing 1% triton-X and 10% glycerin was added thereto to dissolve the cells and 100 μl of a luciferase substrate solution containing 0.47 mM luciferin was further added thereto. Then, emitted light intensity was measured using a luminometer, the intensity being regarded as luciferase activity obtained by MMTV-LTR transcription activation due to androgen receptor and nonspecific activation of SV40 promoter transcription.
The transcription activation inhibitory action of the compound of the present invention was calculated according to the following equation as an inhibitory ratio to the transcription activity induced by 0.3 nM DHT. Inhibitory ratio (%)=100(I′−X′)/(I′−B)
I′: (MMTV luciferase activity)/(SV40 luciferase activity) in the case that 0.3 nM DHT is only added
B: (MMTV luciferase activity)/(SV40 luciferase activity) without treatment
X′: (MMTV luciferase activity)/(SV40 luciferase activity) in the case that the compound of the present invention is added together with 0.3 nM DHT
IC50 was determined from the concentration of the compound of the present invention at which the inhibitory ratio calculated by the above method reached 50%.

[2] = tested on: ventral prostate of mature male rat; assay: Prostate gland reducing action toward mature male rat; type: in vivo; conditions: 360 h; oral, once a day for 15 days, male Wistar rat, ventral prostate wet weight, linear regression
Procedure: 3. Prostate Gland Reducing Action Toward Mature Male Rat
To a male 9-10 weeks old Wistar rat, the compound of the present invention suspended in a 0.5% methylcellulose solution was orally administered once a day continuously for 15 days. After 6 hours from the final administration, the wet weight of its ventral prostate was measured and a prostate gland reducing of the compound of the present invention was investigated.
The prostate gland reducing of the compound of the present invention was calculated according to the following formula using a group to which the compound of the present invention was administered as a test group and a group to which only methylcellulose was administered as a control group. Lessening ratio (%)=100(B−A)/B
A: Wet weight of ventral prostate in test group
B: Wet weight of ventral prostate in control group
From the lessening ratio determined in the above, an ED50 value was calculated by the linear regression method.

[3] = biological target: T1, human androgen receptor; assay: Transcription activating action toward human androgen receptor (agonistic action), MMTV luciferase reporter in CHO cells; type: cell-based; conditions: ratio to transcription activity induced by 1 nM DHT; CHO/MMTV and CHO/SV40 stable transformants
Procedure: 1. Transcription Activation Regulatory Action Toward Human Androgen Receptor
Acquisition of Human Androgen Receptor-Expressing, Stable Transformant of MMTV Reporter Gene, and Stable Transformant of SV40 Reporter Gene
CHO cells were seeded on a dish for cell culture having a diameter of 100 mm in an amount of 1×10^6 cells. After 12 to 18 hours, a human androgen receptor-expressing plasmid, MMTV-LTR luciferase reporter plasmid (also inclusive of neomycin resistant gene) co-precipitated with calcium phosphate was added thereto to effect transfection. […]
CHO/MMTV stable transformant cells and CHO/SV40 stable transformant cells were each seeded to a 96-well luminoplate for cell culture in an amount of 2×10^4 cells/well. […] Then, emitted light intensity was measured by means of a luminometer, the intensity being regarded as luciferase activity obtained by MMTV-LTR transcription activation due to human androgen receptor and nonspecific activation of SV40 promoter transcription.
The transcription activating action of the compound of the present invention was calculated according to the following equation as a ratio to the transcription activity induced by 1 nM DHT. […]

| Structure (SMILES) | ED50 [2] | IC50 [1] | other results |
| --- | --- | --- | --- |
| COc1cc(N2C[C@@H](C)N(C(=O)Nc3ccc(C(F)(F)F)nc3)C[C@@H]2C)ccc1C#N [Example 3-15, (2R,5S)-4-(4-cyano-3-methoxyphenyl)-2,5-dimethyl-N-(6-trifluoromethyl-3-pyridyl)piperazine-1-carboxamide] | 4.1 mg/kg | – | IC50 ([1]; against 0.3 nM DHT, CHO/MMTV and CHO/SV40 stable transformants, read-out: Transcription activation inhibitory action (IC50 nM)): 130 nM |
| C[C@@H]1CN(c2ccc(C#N)c(C(F)(F)F)c2)[C@@H](C)CN1C(=O)Nc1cnc(C2CC2)nc1 [Example 3-30, (2R,5S)-4-(4-cyano-3-trifluoromethylphenyl)-N-(2-cyclopropylpyrimidin-5-yl)-2,5-dimethylpiperazine-1-carboxamide] | 3.9 mg/kg | 68 nM | – |
| COc1cc(N2C[C@@H](C)N(C(=O)Nc3ccc(C(F)(F)F)nc3)C[C@@H]2C)ccc1C#N (as salt: salt) [Example 3-15, (2R,5S)-4-(4-cyano-3-methoxyphenyl)-2,5-dimethyl-N-(6-trifluoromethyl-3-pyridyl)piperazine-1-carboxamide] | – | – | melting point: 211 to 212 °C |
| C[C@@H]1CN(c2ccc(C#N)c(Cl)c2)[C@@H](C)CN1C(=O)Nc1ccc(C#N)nc1 [Example 3-12, (2R,5S)-4-(3-chloro-4-cyanophenyl)-N-(6-cyano-3-pyridyl)-2,5-dimethylpiperazine-1-carboxamide] | 1.7 mg/kg | 40 nM | agonistic induction ratio [3]: ≤ 1% |
| C[C@@H]1CN(c2ccc(C#N)c(Cl)c2)[C@@H](C)CN1C(=O)Nc1cnc(C2CC2)nc1 [Example 3-9, (2R,5S)-4-(3-chloro-4-cyanophenyl)-N-(2-cyclopropylpyrimidin-5-yl)-2,5-dimethylpiperazine-1-carboxamide] | 4.5 mg/kg | – | – |
| C[C@@H]1CN(c2ccc(C#N)c(Br)c2)[C@@H](C)CN1C(=O)Nc1ccc(C(F)(F)F)nc1 [Example 3-23, (2R,5S)-4-(3-bromo-4-cyanophenyl)-2,5-dimethyl-N-(6-trifluoromethyl-3-pyridyl)piperazine-1-carboxamide] | 1.1 mg/kg | 53 nM | – |
| C[C@@H]1CN(c2ccc(C#N)c(Br)c2)[C@@H](C)CN1C(=O)Nc1ccc(C(F)(F)F)nc1 (as salt: salt) [Example 3-23, (2R,5S)-4-(3-bromo-4-cyanophenyl)-2,5-dimethyl-N-(6-trifluoromethyl-3-pyridyl)piperazine-1-carboxamide] | – | – | melting point: 216 to 218 °C |
